Data set [1] has as its system Mecp2:Luciferase knock-in reporter on the Xi. In words: Luciferase assay in Xi-Mecp2-Luc MEFs. It counts as cell-based, mouse. The note with it: for upregulation of MECP2 by other Xist gapmers: 20 nM ASO + 0.5 μM Aza (FIG. 7B-D); for Xi-Mecp2 upregulation / reactivation in combination with the Xist ASO: 20 nM Xist ASO + small molecule inhibitor (EPZ6438 1 uM, VX680 1 uM, Aza 0.5 uM). As for the experimental part: (§1) Mecp2-Luc fibroblast cell lines were a generous gift from Dr. Bedalov. The clonal hybrid (cast/mus) cell line (EY.T4) was previously developed in the lab (Yildirim E et al. (2011) X-chromosome hyperactivation in mammals via nonlinear relationships between chromatin states and transcription. Nat Struct Mol Biol 19:56-61). Passage number was kept below 25, no further verification of cell line identity was performed. They were maintained in DMEM-glutamax (Gibco), supplemented with fetal bovine serum (FBS, 10%), non-essential amino acids (1×, Gibco), HEPES buffer (25 mM, Gibco), penicillin/streptomycin (1×, Gibco) and 2-Mercaptoethanol (Sigma). Transfection was performed with 20 nM ASO assisted by Lipofectamine LTX with Plus reagent (Thermo Fisher).
Xa-Mecp2-Luc clone cell line was used in parallel for providing a scaling magnitude for normalizing Xi-driven luciferase signals, Cells were grown in a 12 well plate, trypsinized, counted, washed with PBS and dispensed in 20 ul of 1× cell culture lysis reagent (Promega). The mixture was vortexed and incubated for 5 min and then transferred to a zebra 96 well plate. The plate was read using a Perkin Elmer MicroBeta2 LumiJET that automatically adds 100 μl of Luciferase Assay Reagent (Promega) 2 sec before measuring the produced light for 10 sec. The corrected counts per second where divided by the number of cells for generating a luciferase-reactivation score per cell. For the initiating screen ASOs were used at 20 nM (transfected with lipofectamine) in combination with 0.5 uM Aza for 3 days. The reverse screen used 20 nM Xist ASO (transfected with lipofectamine) in combination with the small molecule inhibitors at different concentrations (see Table S-II) for 3 days.
We asked whether an ASO could also be developed for Xi-reactivation. We screened a small ASO library against various targets of potential interest, including Xist RNA and an antisense transcript to Mecp2 (Mecp2-as) (FIG. 1A, FIG. 6, Table S-I). In designing the ASOs, we chose phosporothioate backbone and locked nucleic acid (LNA™) chemistry (Wahlestedt C et al. Potent and nontoxic antisense oligonucleotides containing locked nucleic acids. Proc Natl Acad Sci USA. 2000; 97:5633-5638) for its in vivo and in vitro stability, and increased affinity and selectivity for RNA targets. All were designed as gapmers, with unmodified deoxyribonucleosides in the center flanked by 5′ and 3′ terminal locked nucleosides, to direct RNAse-H-mediated cleavage of the target transcript. […] The luciferase reporter provides a highly sensitive enzymatic detection method with a large dynamic range. […] Epigenetics Chromatin. […] Science. 2015; 349: aab2276-12), we examined the efficacy of each ASO in the presence of 0.5 uM decitabine (“Aza”; 5-aza-2′-deoxycytidine) for three days.

The conditions of data set [2]: cited from earlier work.
Data set [3] has as its system X-linked gene expression relative to autosomal expression. In words: Aza three pulse treatment, transcriptomic analysis of brain and liver. It counts as in vivo, mouse. An excerpt:
All libraries were sequenced with Illumina HiSeq, generating 28-54 millions paired-end 50 nucleotide reads per sample. RNA-seq reads were aligned allele-specifically to 129S1/SvJm (mus) and CAST/Eih (cas) genome using TopHat2 (Kim D, et al. (2013) TopHat2: Accurate alignment of transcriptomes in the presence of insertions, deletions and gene fusions. Genome Biol 14:R36). After removal of PCR duplicates, all unique reads mapped to the exons of each gene were quantified by Homer (Heinz S, et al. (2010) Simple combinations of lineage-determining transcription factors prime cis-regulatory elements required for macrophage and B cell identities. Mol Cell 38:576-589). […] To compare the fold change of autosomal and X-linked genes, only genes with FPKM≥1 were considered (Yang L, Kirby J E, Sunwoo H, Lee J T (2016) Female mice lacking Xist RNA show partial dosage compensation and survive to term. Genes Dev 30:1747-1760). […] For allele-specific analysis, we defined % mus as the percentage of mus-specific exonic reads in all allele-specific (mus-specific+cas-specific) exonic reads of each transcript. For classification of X-linked genes, we defined expressed genes as genes having non-zero FPKM in all samples. Allele-assessable genes were defined as active genes that have more than 12 allele-specific reads in all samples (Pinter S F and Colognori D (2015) Allelic imbalance is a prevalent and tissue-specific feature of the mouse transcriptome. Genetics 200:537-549). It has been described that a small fraction of genes overlap with incorrectly annotated SNPs and produce unexpected allelic skewing (Pinter S F and Colognori D (2015) Allelic imbalance is a prevalent and tissue-specific feature of the mouse transcriptome. Genetics 200:537-549; Calabrese J M et al. (2012) Site-specific silencing of regulatory elements as a mechanism of X inactivation. Cell 151:951-963). These genes were identified by analyzing a published RNA-seq dataset of tail-tip fibroblasts (TTF) from pure Mus castaneous background. […]

Data set [4] has as its system Xi-Mecp2-Luc MEF cells. The class given is cell-based. The protocol:
as §1
Imaging was done with a Nikon Eclipse TE2000-E equipped with a HamamatsuCCD camera. Image analysis was done with OpenLAB software (Agilent).

Data set [5] relates to Xi-Mecp2-Luc MEF cells. Particulars: stated in parentheses only; target and source not given; cited from earlier work.
Data set [6] is described as follows: Aza three pulse treatment, long-term health, lifespan and body weight. As for the experimental part:
Aza was administered to the Xist2lox, Nestin-Cre F2 generation, by IP injection at 5 weeks old. Three injections 100 ul per 10 g of 0.033 mg/ml in sterile saline (or just sterile saline as control) were given over the course of a week (each injection separated by 2 days). Both Xist2lox/2lox and Xist Δ/Δ were injected and were randomly assigned to the treatment group. No specific randomization protocol was followed. RNA from the brain and liver were harvested (as described before) at 7 weeks of age (2 weeks after the first injection).

“Also recorded” adds a separate entry of the source.

The values below come from patent US20210222168A1, “METHODS FOR REACTIVATING GENES ON THE INACTIVE X CHROMOSOME” (THE GENERAL HOSPITAL CORPORATION, priority 2017, published 2021).

Turning to “Xist ASO 2: LNA gapmer ASO targeting Xist exon 1; AGTAGCTCGGTGGAT, SEQ ID NO: 3 (all phosphorothioate, sugars by position and methylation of C not given here; LNA gapmer with DNA center and LNA wings)”, in data set [1], the “upregulation of MECP2 by other Xist gapmers” value is recorded as “found to also upregulate MECP2”.
One may read the IC50 as the concentration that inhibits the measured activity by half. Take `Nc1ncn([C@H]2C[C@H](O)[C@@H](CO)O2)c(=O)n1` [Aza, 5-aza-2′-deoxycytidine]: the blood-brain-barrier crossing entry in data set [2] (cited: Chabot et al., rabbits and dogs) is “can cross the blood-brain-barrier”. In addition, the “half-life (t1/2) in plasma” value in data set [2] (plasma) is given as less than 1 h. The “X- and autosomal gene expression in liver” value in data set [3] (three IP Aza pulses over one week at 5 weeks of age, harvested two weeks later, liver (Xist not deleted)) is reported as “remained balanced”. Further, the “X-linked gene expression relative to autosomal expression in XistΔ/Δ brain” value in data set [3] (three IP Aza pulses over one week combined with Xist deletion, brain two weeks later) is listed as “highly significant positive changes in X-linked gene expression relative to autosomal expression; also recorded: X-upregulation evident in the brain two weeks later; also recorded: sufficient to induce Xi reactivation after two weeks in the brain”. Further, the “X-to-autosomal gene expression in Xist2lox/2lox (wild-type) brain” value in data set [3] (three IP Aza pulses over one week, brain two weeks later) is “did not result in X-to-autosomal gene imbalance”. In addition, in data set [4] (1.0, 2.5 uM Aza, 3-day treatment), the “cell death at higher Aza concentrations” value was “increased cell death”. Further, the “tolerable Aza concentrations in cell culture” value in data set [4] (FIG. 2C) is 0.5 µM. The IC50 in data set [5] is 500 nM. Further, the survival entry in data set [6] (after short-term Aza pulse treatment) was “all mice advanced to 1-2 year of age”. In data set [6] (mouse, in vivo), the “body weight, Aza versus saline treatment groups” value is “did not introduce significant differences”; the health and lifespan entry was “no measurable differences in health and lifespan”. Besides, the “Mecp2:luciferase upregulation, single treatments compared with the combination” value in data set [1] (5 days) is recorded as “remained significantly lower”.
Turning to “Xist ASO 3: LNA gapmer ASO targeting Xist exon 1; TGAGTCTTGAGGAGAA, SEQ ID NO: 4 (all phosphorothioate, sugars by position and methylation of C not given here; LNA gapmer with DNA center and LNA wings)”, in data set [1], the “upregulation of MECP2 by other Xist gapmers” value is listed as “found to also upregulate MECP2”.
For “Scr ASO: negative control ASO, scrambled sequence; AACACGTCTATACGC, SEQ ID NO: 1 (all phosphorothioate, sugars by position and methylation of C not given here; LNA gapmer with DNA center and LNA wings)”, in data set [1] (3 days, ASO 20 nM or Aza 0.5 uM alone), the “luminescent counts per second (LCPS) / Mecp2:luciferase reactivation, single treatment” value is “neither the control Scr ASO (20 nM) nor Xist ASO (20 nM gapmer 1) resulted in measurable luminescent counts per second”.
For `CCN(c1cc(-c2ccc(CN3CCOCC3)cc2)cc(C(=O)NCc2c(C)cc(C)[nH]c2=O)c1C)C1CCOCC1` [EPZ6438, N-((4,6-dimethyl-2-oxo-1,2-dihydropyridin-3-yl)methyl)-5-(ethyl(tetrahyd-ro-2H-pyran-4-yl)amino)-4-methyl-4′-(morpholinomethyl)-[1,1′-biphenyl]-3-carboxamide], the “Xi-Mecp2 upregulation / reactivation in combination with the Xist ASO” value in data set [1] (3 days) is “varying degrees of upregulation; also recorded: larger degree of reactivation than previously seen with any other compound”.
Still for that read-out and setting: the entry for `Cc1cc(Nc2cc(N3CCN(C)CC3)nc(Sc3ccc(NC(=O)C4CC4)cc3)n2)n[nH]1` [VX680] is “varying degrees of upregulation; also recorded: larger degree of reactivation than previously seen with any other compound”.
